Measured values taken from patent publication US20150274680A1, “THERAPEUTIC OR PROPHYLACTIC AGENT FOR TUMOR LYSIS SYNDROME” (University of Fukui, priority 2012, published 2015).

Experiments:
Type in all cases: in vivo, human
[1] = system: malignant tumor patients with tumor lysis syndrome; assay: Prophylactic effect on serum uric acid levels when chemotherapy is performed on malignant tumor patients with tumor lysis syndrome (Example 3); settings: oral once daily from before chemotherapy, adult and pediatric patients; written in present tense, no data
Description: In order to investigate prophylactic effects of febuxostat on tumor lysis syndrome, febuxostat is orally administered once a day, daily, from before chemotherapy is performed on a malignant tumor adult patient with tumor lysis syndrome, and an assessment is made by using serum uric acid levels as indicators. In addition, also for a malignant tumor pediatric patient with tumor lysis syndrome, similar investigation is conducted with febuxostat.

[2] = system: patients with hematological malignancies at low or intermediate risk for tumor lysis syndrome; assay: Prophylactic effect on serum uric acid, renal function and urinary uric acid excretion in patients with hematological malignancies receiving chemotherapy (Example 2)
Description: In order to investigate the prophylactic effects of febuxostat on tumor lysis syndrome, 10 mg of febuxostat (the starting dose in gout and hyperuricemia) was orally administered once a day, daily, from just before or the day before chemotherapy was performed on patients with hematological malignancies at low or intermediate risk for tumor lysis syndrome, and the serum uric acid level and the renal function on the fifth day of administration were compared with those before the start of febuxostat administration. For cases in which urine collection was possible, the urinary excretion level of uric acid on the fifth day of administration was compared with that before the start of febuxostat administration. […] Seven male and female cases (6 males and 1 female), aged 36 to 79 (median 70), acute myeloid leukemia (AML 3 cases), diffuse large B-cell lymphoma (DLBCL 2 cases), chronic myelomonocytic leukemia (CMML 1 case), chronic myeloid leukemia (CML 1 case), white blood cell count (WBC) 3,200 to 347,000/μL [table]

[3] = system: high-risk tumor lysis syndrome patient; assay: Therapeutic effect on serum uric acid levels and renal function in a high-risk tumor lysis syndrome patient (Example 1)
Description: In order to investigate the therapeutic effects of febuxostat on a high-risk tumor lysis syndrome patient, a high-risk patient with tumor lysis syndrome which had occurred without antitumor therapy, and already presented hyperuricemia, was given transfusions of fresh frozen plasma and packed red blood cells, and then in addition to increasing a urine volume by supplying fluid and to alkalizing urine, febuxostat (60 mg) was orally administered for 3 days, and the serum uric acid levels and renal function were compared with those before administration of febuxostat.
A person, Myelodysplastic syndrome (MDS), White blood cell count (WBC) 15400/μL

## Cc1nc(-c2ccc(OCC(C)C)c(C#N)c2)sc1C(=O)O [febuxostat, 2-[3-cyano-4-(2-methylpropoxyl)phenyl]-4-methylthiazole-5-carboxylic acid]
[1]
  Prevention of tumor lysis syndrome (serum uric acid levels as indicators): effective for the prevention of tumor lysis syndrome
[2]; Case 2 (AML), fifth day of febuxostat 10 mg/day, 1.9 mg/dL before administration
  Serum uric acid level (UA), Case 2: 2.3 mg/dL
[2]; Case 2, fifth day of febuxostat 10 mg/day, 0.8 g/day before administration
  Urinary excretion level of uric acid (urinary UA), Case 2: 1.6 g/day
[2]; Case 2, fifth day of febuxostat 10 mg/day, 101 mL/min before administration
  Estimated glomerular filtration rate (eGFR), Case 2: 99 mL/min
[2]; all cases, febuxostat 10 mg/day with chemotherapy
  Acute renal failure: in all cases, acute renal failure was prevented
[2]; all cases, prophylactic febuxostat 10 mg with chemotherapy, normal level 7.5 mg/dL or less
  Serum uric acid levels relative to normal levels: maintain the serum uric acid levels within or lower them to within normal levels
[2]; cases where urine collection was possible, fifth day of febuxostat 10 mg/day, 1.2 g/day on average before administration
  Urinary excretion level of uric acid (urinary UA), average: 0.9 g/day
[2]; fifth day of febuxostat 10 mg once daily oral, average of 7 cases, 6.3 mg/dL on average before administration
  Serum uric acid level (UA), average: 4.6 mg/dL
[2]; fifth day of febuxostat 10 mg once daily, average, 69.7 mL/min on average before administration
  Estimated glomerular filtration rate (eGFR), average: 76.9 mL/min
[2]; severe case in which WBC was high, fifth day of febuxostat 10 mg/day, 2.4 g/day before administration
  Urinary excretion level of uric acid (urinary UA), severe case with high WBC: 0.7 g/day
[3]; Day 4, after 3 days of febuxostat 60 mg/day, 0.87 mg/dL before administration
  Serum creatinine (Cre): 0.73 mg/dL
[3]; Day 4, after 3 days of febuxostat 60 mg/day, 53 mL/min before administration
  Estimated glomerular filtration rate (eGFR): 64 mL/min
[3]; Day 4, after 3 days of oral febuxostat 60 mg/day, person, MDS, 9.7 mg/dL on the day before administration
  Serum uric acid level (UA): 1.7 mg/dL
[3]; Day 4 vs day before administration, febuxostat 60 mg/day for 3 days
  Reduction of serum uric acid level: 82.4%
